# In PubChem BioAssay AID1963829 (Molecular Pharmacology Branch, DTP, NCI, 2024):
# System: 935938-334-R-J1-PDC complex spheroid viability
# Test: Anticancer human tumor 935938-334-R-J1-PDC patient-derived small intestine adenocarcinoma cell line growth inhibition [POLQ]
# Conditions: for IC50: curve of first compound; for viability, T/C: stronger effect = lower value
# Summary of the method: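 Three-cell-type spheroids modelling solid tumor plus stroma served as the readout system; POL inhibitors were tested individually and in combination, concentration ranges set by clinical Cmax where known.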
# [1] = second compound 0.0316 µM, first compound 0.0316 µM
# [2] = second compound 0.0316 µM, first compound 0.1 µM
# [3] = second compound 0.0316 µM, first compound 0.316 µM
# [4] = second compound 0.0316 µM, first compound 1 µM
# [5] = second compound 0.0316 µM, first compound 3.16 µM
# [6] = second compound 0.0316 µM, first compound 10 µM
# [7] = second compound 0.1 µM, first compound 0.0316 µM
# [8] = second compound 0.1 µM, first compound 0.1 µM
# [9] = second compound 0.1 µM, first compound 0.316 µM
# [10] = second compound 0.1 µM, first compound 1 µM
# [11] = second compound 0.1 µM, first compound 3.16 µM
# [12] = second compound 0.1 µM, first compound 10 µM
# [13] = second compound 0.316 µM, first compound 0.0316 µM
# [14] = second compound 0.316 µM, first compound 0.1 µM
# [15] = second compound 0.316 µM, first compound 0.316 µM
# [16] = second compound 0.316 µM, first compound 1 µM
# [17] = second compound 0.316 µM, first compound 3.16 µM
# [18] = second compound 0.316 µM, first compound 10 µM
# [19] = second compound 1 µM, first compound 0.0316 µM
# [20] = second compound 1 µM, first compound 0.1 µM
# [21] = second compound 1 µM, first compound 0.316 µM
# [22] = second compound 1 µM, first compound 1 µM
# [23] = second compound 1 µM, first compound 3.16 µM
# [24] = second compound 1 µM, first compound 10 µM
# [25] = second compound 3.16 µM, first compound 0.0316 µM
# [26] = second compound 3.16 µM, first compound 0.1 µM
# [27] = second compound 3.16 µM, first compound 0.316 µM
# [28] = second compound 3.16 µM, first compound 1 µM
# [29] = second compound 3.16 µM, first compound 3.16 µM
# [30] = second compound 3.16 µM, first compound 10 µM
# [31] = second compound 10 µM, first compound 0.0316 µM
# [32] = second compound 10 µM, first compound 0.1 µM
# [33] = second compound 10 µM, first compound 0.316 µM
# [34] = second compound 10 µM, first compound 1 µM
# [35] = second compound 10 µM, first compound 3.16 µM
# [36] = second compound 10 µM, first compound 10 µM
# 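Also: spheroids exposed to drugs for seven days before viability read.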
# 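For viability, T/C in this document: 100% = DMSO vehicle control wells.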
structure (smiles),measurement,setting,value
CNCc1ccc(-c2[nH]c3cc(F)cc4c3c2CCNC4=O)cc1 + COC1C(OC(N)=O)C(O)C(Oc2ccc3c(O)c(NC(=O)c4ccc(O)c(CC=C(C)C)c4)c(=O)oc3c2C)OC1(C)C,IC50,second compound 0.0316 µM,> 10 µM
same,IC50,second compound 0.1 µM,> 10 µM
same,IC50,second compound 0.316 µM,> 10 µM
same,IC50,second compound 1 µM,> 10 µM
same,IC50,second compound 3.16 µM,> 10 µM
same,IC50,second compound 10 µM,> 10 µM
same,"viability, T/C",[1],124%
same,"viability, T/C",[2],97.1%
same,"viability, T/C",[3],87.9%
same,"viability, T/C",[4],87.4%
same,"viability, T/C",[5],75.4%
same,"viability, T/C",[6],83.4%
same,"viability, T/C",[7],79.9%
same,"viability, T/C",[8],111%
same,"viability, T/C",[9],94.9%
same,"viability, T/C",[10],87.6%
same,"viability, T/C",[11],98.5%
same,"viability, T/C",[12],96.7%
same,"viability, T/C",[13],115%
same,"viability, T/C",[14],108%
same,"viability, T/C",[15],94.9%
same,"viability, T/C",[16],92.3%
same,"viability, T/C",[17],84%
same,"viability, T/C",[18],87.8%
same,"viability, T/C",[19],92.6%
same,"viability, T/C",[20],105%
same,"viability, T/C",[21],113%
same,"viability, T/C",[22],105%
same,"viability, T/C",[23],98.8%
same,"viability, T/C",[24],92.9%
same,"viability, T/C",[25],87.5%
same,"viability, T/C",[26],100%
same,"viability, T/C",[27],70.7%
same,"viability, T/C",[28],75.2%
same,"viability, T/C",[29],94%
same,"viability, T/C",[30],99.2%
same,"viability, T/C",[31],95.7%
same,"viability, T/C",[32],113%
same,"viability, T/C",[33],82.9%
same,"viability, T/C",[34],94.4%
same,"viability, T/C",[35],117%
same,"viability, T/C",[36],88.7%
CC1COCCN1c1cc(-c2ccnn2C)c2ccnc(-c3ccn[nH]3)c2n1 (stereo unspecified) + COC1C(OC(N)=O)C(O)C(Oc2ccc3c(O)c(NC(=O)c4ccc(O)c(CC=C(C)C)c4)c(=O)oc3c2C)OC1(C)C,IC50,second compound 0.0316 µM,0.0727 µM
same,IC50,second compound 0.1 µM,0.0592 µM
same,IC50,second compound 0.316 µM,0.136 µM
same,IC50,second compound 1 µM,0.0512 µM
same,IC50,second compound 3.16 µM,0.093 µM
same,IC50,second compound 10 µM,0.0808 µM
same,"viability, T/C",[1],73.1%
same,"viability, T/C",[2],41%
same,"viability, T/C",[3],20.7%
same,"viability, T/C",[4],13.7%
same,"viability, T/C",[5],13.8%
same,"viability, T/C",[6],16.3%
same,"viability, T/C",[7],66.6%
same,"viability, T/C",[8],36%
same,"viability, T/C",[9],20.7%
same,"viability, T/C",[10],14.3%
same,"viability, T/C",[11],16.4%
same,"viability, T/C",[12],19.7%
same,"viability, T/C",[13],73.1%
same,"viability, T/C",[14],61%
same,"viability, T/C",[15],19.9%
same,"viability, T/C",[16],15%
same,"viability, T/C",[17],18%
same,"viability, T/C",[18],21.3%
same,"viability, T/C",[19],59.7%
same,"viability, T/C",[20],36.5%
same,"viability, T/C",[21],18.8%
same,"viability, T/C",[22],14.9%
same,"viability, T/C",[23],14.8%
same,"viability, T/C",[24],20.3%
same,"viability, T/C",[25],78.9%
same,"viability, T/C",[26],48%
same,"viability, T/C",[27],19.4%
same,"viability, T/C",[28],15%
same,"viability, T/C",[29],18.9%
same,"viability, T/C",[30],16.1%
same,"viability, T/C",[31],74.9%
same,"viability, T/C",[32],44.1%
same,"viability, T/C",[33],24.4%
same,"viability, T/C",[34],14.4%
same,"viability, T/C",[35],14.7%
same,"viability, T/C",[36],20.7%
O=c1[nH]cc(F)c(=O)[nH]1 + Nc1ccc(C#CCN(C(=O)Cc2ncc(C(F)(F)F)cc2C(F)(F)F)c2ccc(F)cc2)nn1,IC50,second compound 0.0316 µM,> 10 µM
same,IC50,second compound 0.1 µM,> 10 µM
same,IC50,second compound 0.316 µM,> 10 µM
same,IC50,second compound 1 µM,> 10 µM
same,IC50,second compound 3.16 µM,> 10 µM
same,IC50,second compound 10 µM,> 10 µM
same,"viability, T/C",[1],83%
same,"viability, T/C",[2],88.5%
same,"viability, T/C",[3],87.4%
same,"viability, T/C",[4],68.5%
same,"viability, T/C",[5],62.7%
same,"viability, T/C",[6],48.8%
same,"viability, T/C",[7],101%
same,"viability, T/C",[8],92.9%
same,"viability, T/C",[9],82.1%
same,"viability, T/C",[10],66.3%
same,"viability, T/C",[11],60.7%
same,"viability, T/C",[12],53.4%
same,"viability, T/C",[13],81.5%
same,"viability, T/C",[14],74.1%
same,"viability, T/C",[15],88.9%
same,"viability, T/C",[16],68.4%
same,"viability, T/C",[17],55.8%
same,"viability, T/C",[18],56.5%
same,"viability, T/C",[19],103%
same,"viability, T/C",[20],79.7%
same,"viability, T/C",[21],104%
same,"viability, T/C",[22],68.9%
same,"viability, T/C",[23],55%
same,"viability, T/C",[24],61%
same,"viability, T/C",[25],92.2%
same,"viability, T/C",[26],85.8%
same,"viability, T/C",[27],86.6%
same,"viability, T/C",[28],62.1%
same,"viability, T/C",[29],61%
same,"viability, T/C",[30],53.7%
same,"viability, T/C",[31],125%
same,"viability, T/C",[32],101%
same,"viability, T/C",[33],91.8%
same,"viability, T/C",[34],58.3%
same,"viability, T/C",[35],52.4%
same,"viability, T/C",[36],56.7%
